From ChEMBL document CHEMBL4052759, “Discovery of DS79182026: A potent orally active hepcidin production inhibitor” (Bioorg Med Chem Lett, 2017)
One block for each molecule: values may come before it.

Assays:
[1] = target: T1, Aurora kinase A (Homo sapiens) (UniProt O14965); assay: Inhibition of AurA (unknown origin) at 0.078 uM relative to control
T1 sequence (whole entry): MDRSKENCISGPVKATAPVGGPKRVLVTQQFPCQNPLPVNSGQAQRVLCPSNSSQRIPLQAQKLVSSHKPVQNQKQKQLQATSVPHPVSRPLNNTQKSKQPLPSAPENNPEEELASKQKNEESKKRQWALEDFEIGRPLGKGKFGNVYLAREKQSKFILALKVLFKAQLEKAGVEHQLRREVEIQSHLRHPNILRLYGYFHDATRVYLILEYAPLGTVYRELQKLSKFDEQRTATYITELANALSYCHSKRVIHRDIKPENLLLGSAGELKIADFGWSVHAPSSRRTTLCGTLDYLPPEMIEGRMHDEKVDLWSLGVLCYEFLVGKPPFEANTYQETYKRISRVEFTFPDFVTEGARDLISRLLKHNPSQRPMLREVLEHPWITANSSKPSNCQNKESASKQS

[2] = target: T2, MAP kinase-activated protein kinase 5 (Homo sapiens) (UniProt Q8IW41); assay: Inhibition of PRAK (unknown origin) at 0.078 uM relative to control
T2 sequence (whole entry): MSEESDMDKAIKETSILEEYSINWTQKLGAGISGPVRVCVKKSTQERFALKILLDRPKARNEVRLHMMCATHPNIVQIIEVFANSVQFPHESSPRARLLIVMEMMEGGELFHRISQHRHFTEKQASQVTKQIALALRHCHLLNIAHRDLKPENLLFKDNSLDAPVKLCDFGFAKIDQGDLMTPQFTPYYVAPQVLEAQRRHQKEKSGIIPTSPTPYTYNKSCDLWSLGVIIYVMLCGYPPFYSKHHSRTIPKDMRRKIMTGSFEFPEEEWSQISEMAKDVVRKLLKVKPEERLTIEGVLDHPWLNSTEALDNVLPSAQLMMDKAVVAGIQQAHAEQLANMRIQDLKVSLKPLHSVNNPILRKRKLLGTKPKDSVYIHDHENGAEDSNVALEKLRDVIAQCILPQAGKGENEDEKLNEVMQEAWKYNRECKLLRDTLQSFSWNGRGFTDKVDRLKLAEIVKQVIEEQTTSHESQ

[3] = target: Tyrosine-protein kinase ABL1 (Homo sapiens) (UniProt P00519); assay: Inhibition of ABL (unknown origin) at 0.078 uM relative to control
[4] = target: Tyrosine-protein kinase Fyn (Homo sapiens) (UniProt P06241); assay: Inhibition of FYN (unknown origin) at 0.078 uM relative to control
[5] = target: Ribosomal protein S6 kinase alpha-4 (Homo sapiens) (UniProt O75676); assay: Inhibition of MSK2 (unknown origin) at 0.49 uM relative to control
[6] = target: Protein kinase C eta type (Homo sapiens) (UniProt P24723); assay: Inhibition of PKC-eta (unknown origin) at 0.49 uM relative to control
[7] = target: Ribosomal protein S6 kinase alpha-2 (Homo sapiens) (UniProt Q15349); assay: Inhibition of RSK3 (unknown origin) at 0.49 uM relative to control
[8] = target: Tyrosine-protein kinase JAK3 (Homo sapiens) (UniProt P52333); assay: Inhibition of JAK3 (unknown origin) at 0.49 uM relative to control
[9] = target: T3, Serine/threonine-protein kinase Chk1 (Homo sapiens) (UniProt O14757); assay: Inhibition of CHK1 (unknown origin) at 0.49 uM relative to control
T3 sequence (whole entry): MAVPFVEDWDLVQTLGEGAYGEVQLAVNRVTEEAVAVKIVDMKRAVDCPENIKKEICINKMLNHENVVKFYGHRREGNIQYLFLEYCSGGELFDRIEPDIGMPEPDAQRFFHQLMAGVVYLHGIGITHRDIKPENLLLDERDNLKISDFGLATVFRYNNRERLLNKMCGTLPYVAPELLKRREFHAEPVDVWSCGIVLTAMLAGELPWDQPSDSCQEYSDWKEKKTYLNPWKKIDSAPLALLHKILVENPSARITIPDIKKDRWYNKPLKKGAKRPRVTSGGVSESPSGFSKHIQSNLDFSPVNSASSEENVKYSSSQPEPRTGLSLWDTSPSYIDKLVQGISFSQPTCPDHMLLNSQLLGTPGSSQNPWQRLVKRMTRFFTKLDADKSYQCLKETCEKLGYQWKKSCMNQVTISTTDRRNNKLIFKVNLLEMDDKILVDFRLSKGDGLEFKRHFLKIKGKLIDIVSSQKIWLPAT

[10] = target: Serine/threonine-protein kinase DCLK1 (Homo sapiens) (UniProt O15075); assay: Inhibition of DCAMKL1 (unknown origin) at 0.49 uM relative to control
[11] = tested on: Platelet-derived growth factor receptor alpha (Homo sapiens), P16234 [V561D]; assay: Inhibition of PDGFRA V561D mutant (unknown origin) at 0.49 uM relative to control
[12] = target: High affinity nerve growth factor receptor (Homo sapiens) (UniProt P04629); assay: Inhibition of TRKA (unknown origin) at 0.49 uM relative to control
[13] = target: Interleukin-1 receptor-associated kinase 1 (Homo sapiens) (UniProt P51617); assay: Inhibition of IRAK1 (unknown origin) at 0.49 uM relative to control
[14] = target: Fibroblast growth factor receptor 2 (Homo sapiens) (UniProt P21802); assay: Inhibition of FGFR2 (unknown origin) at 0.45 uM relative to control
[15] = target: Inhibitor of nuclear factor kappa-B kinase subunit beta (Homo sapiens) (UniProt O14920); assay: Inhibition of IKK-beta (unknown origin) at 0.45 uM relative to control
[16] = target: AMPK alpha2/beta1/gamma1 (Homo sapiens) (UniProt P54646+P54619+Q9Y478); assay: Inhibition of AMPK-alpha2/beta1/gamma1 (unknown origin) at 0.45 uM relative to control; type: protein-complex assay
[17] = target: Serine/threonine-protein kinase Chk2 (Homo sapiens) (UniProt O96017); assay: Inhibition of CHK2 (unknown origin) at 0.45 uM relative to control
[18] = target: Homeodomain-interacting protein kinase 3 (Homo sapiens) (UniProt Q9H422); assay: Inhibition of HIPK3 (unknown origin) at 0.45 uM relative to control
[19] = target: Mitogen-activated protein kinase 11 (Homo sapiens) (UniProt Q15759); assay: Inhibition of p38-beta2 (unknown origin) at 0.45 uM relative to control
[20] = tested on: Proto-oncogene tyrosine-protein kinase receptor Ret (Homo sapiens), P07949 [M918T]; assay: Inhibition of RET M918T mutant (unknown origin) at 0.45 uM relative to control
[21] = target: Serine/threonine-protein kinase D1 (Homo sapiens) (UniProt Q15139); assay: Inhibition of PKD1 (unknown origin) at 0.45 uM relative to control
[22] = target: Protein kinase C alpha (Homo sapiens) (UniProt P17252); assay: Inhibition of PKC-alpha (unknown origin) at 0.45 uM relative to control

- inhibition [1]: -1.7%
- inhibition [2]: -3%
- inhibition [3]: 34%
- inhibition [4]: -4.3%
SMILES: COC(=O)Nc1noc2cc(-c3c(-c4ccccn4)n[nH]c3C)ccc12

- inhibition [5]: -3.7%
- inhibition [6]: 7%
- inhibition [7]: 2%
- inhibition [8]: -7.3%
- inhibition [9]: 0%
- inhibition [10]: 0%
- inhibition [11]: -0.7%
- inhibition [12]: 3.7%
- inhibition [13]: 6.7%
SMILES: Cc1[nH]nc(C2CC2)c1-c1ccc2c(NC(=O)C3CC3)noc2c1

- inhibition [14]: 21.7%
- inhibition [15]: 2.3%
- inhibition [16]: 26%
- inhibition [17]: 3%
- inhibition [18]: 2.7%
- inhibition [19]: -1.3%
- inhibition [20]: 57.7%
- inhibition [21]: 1.3%
- inhibition [22]: 13.7%
SMILES: Cc1n[nH]c(C)c1-c1ccc2c(NC(=O)c3ccc(N4CCN(C)CC4)cc3)n[nH]c2c1
